In article PMC11879140, “Engineering of Phycourobilin Synthase: PubS to a Two-Electron Reductase” (Plant and Cell Physiology, 2024):

Experiments:
Assay in all cases: absorption spectrum of BV complex; anaerobic bilin reductase assay with HPLC
Type in all cases: biochemical
Conditions in all cases: ferredoxin (Synechococcus sp. PCC 7002), FNR, NADPH 100 uM; 10 uM BV, 10 uM PubS; pH 8.5, 30 °C
ΔΝ_PpPubS (PpPubS, PubS) [1] = target: T1, ΔΝ_PpPubS (PpPubS, PubS) (Physcomitrium patens, UniProt I3TC50, E240A/N310R)
T1 construct: residues 1-55 (N-terminal disordered region) deleted; N-terminal His-tag, pET28a, synthetic codon-optimised gene, E. coli C41

ΔΝ_PpPubS (PpPubS, PubS) [2] = target: T2, ΔΝ_PpPubS (PpPubS, PubS) (Physcomitrium patens, UniProt I3TC50, F238A/N310R)
T2 construct: residues 1-55 (N-terminal disordered region) deleted; N-terminal His-tag, pET28a, synthetic codon-optimised gene, E. coli C41

ΔΝ_PpPubS (PpPubS, PubS) [3] = target: T3, ΔΝ_PpPubS (PpPubS, PubS) (Physcomitrium patens, UniProt I3TC50, N310R)
T3 construct: residues 1-55 (N-terminal disordered region) deleted; N-terminal His-tag, pET28a, synthetic codon-optimised gene, E. coli C41
T3 sequence (I3TC50 entry or part of it N310R): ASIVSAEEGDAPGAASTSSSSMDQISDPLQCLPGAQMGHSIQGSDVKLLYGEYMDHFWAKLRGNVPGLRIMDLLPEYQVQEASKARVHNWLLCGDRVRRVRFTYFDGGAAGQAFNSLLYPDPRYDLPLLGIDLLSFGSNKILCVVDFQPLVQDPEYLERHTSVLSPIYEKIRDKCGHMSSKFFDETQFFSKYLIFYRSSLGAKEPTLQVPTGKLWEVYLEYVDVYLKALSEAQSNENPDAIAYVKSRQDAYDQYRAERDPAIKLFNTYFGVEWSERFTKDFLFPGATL

T1 sequence (I3TC50 entry or part of it E240A/N310R): as the sequence (I3TC50 entry or part of it N310R) above, with E185A counted along it
T2 sequence (I3TC50 entry or part of it F238A/N310R): as the sequence (I3TC50 entry or part of it N310R) above, with F183A counted along it

Structure (SMILES): C=CC1=C(C)C(=Cc2[nH]c(C=C3N=C(C=C4NC(=O)C(C)=C4C=C)C(C)=C3CCC(=O)O)c(CCC(=O)O)c2C)NC1=O [biliverdin IXα]
- absorption spectrum of BV complex; anaerobic bilin reductase assay with HPLC (ΔΝ_PpPubS (PpPubS, PubS) [1]): Spectroscopic observations of these variants showed a decrease in BV after the addition of NADPH
- absorption spectrum of BV complex; anaerobic bilin reductase assay with HPLC (ΔΝ_PpPubS (PpPubS, PubS) [2]): Spectroscopic observations of these variants showed a decrease in BV after the addition of NADPH
- absorption spectrum of BV complex; anaerobic bilin reductase assay with HPLC (ΔΝ_PpPubS (PpPubS, PubS) [3]): PpPubS_N310R exhibited a decrease in BV absorbance similar to the wild-type molecule
